# Laboratory results reported in patent publication US9924721B2 (priority 2013, dated 2018).
# Like-named read-outs stand apart in the source and are kept apart here. Marks after values point to notes of the source that are not given here.
# How the values were obtained:
# Phytophthora infestans [1] = experiment: microbe, parasite or virus in culture; type: cell-based; conditions: for Eff. % (inhibition of fungal growth): 8 days incubation
# physchem = conditions: pH 2.7
# Plasmopara viticola = experiment: Plasmopara test (grapevines)/preventive; type: in vivo; conditions: spray, evaluated 6 days after inoculation
# Method: Plasmopara Test (Grapevines)/Preventive
# • Solvent: 24.5 parts by weight of acetone • 24.5 parts by weight of dimethylacetamide • Emulsifier: 1 part by weight of alkylaryl polyglycol ether
# To produce a suitable preparation of active compound, 1 part by weight of active compound is mixed with the stated amounts of solvent and emulsifier, and the concentrate is diluted with water to the desired concentration.
# To test for preventive activity, young plants are sprayed with the preparation of active compound at the stated rate of application. After the spray coating has dried on, the plants are inoculated with an aqueous spore suspension of Plasmopara viticola and then remain for 1 day in an incubation cabinet at approximately 20° C. and a relative atmospheric humidity of 100%. The plant is subsequently placed for 4 days in a greenhouse at approximately 21° C. and a relative atmospheric humidity of approximately 90%. The plants are then misted and placed for 1 day in an incubation cabinet.
# The test is evaluated 6 days after the inoculation. 0% means an efficacy which corresponds to that of the untreated control, while an efficacy of 100% means that no disease is observed.
# Phytophthora infestans [2] = type: in vivo; conditions: tomatoes, spray, evaluated 3 days after inoculation
# Pythium ultimum = Pythium ultimum in vitro cell test; type: cell-based; conditions: 4 days incubation
# Method: Pythium ultimum In Vitro Cell Test
# • Solvent: DMSO • Culture medium: 14.6 g anhydrous D-glucose (VWR), 7.1 g Mycological Peptone (Oxoid), 1.4 g granulated Yeast Extract (Merck), QSP liter • Inoculum: mycelial suspension
# Fungicides were solubilized in DMSO and the solution used to prepare the required range of concentrations. The final concentration of DMSO used in the assay was ≤1%.
# Inoculum was prepared from a pre-culture of P. ultimum grown in liquid medium by homogenization using a blender. The concentration of ground mycelium in the inoculum was estimated and adjusted to the desired optical density (OD).
# Fungicides were evaluated for their ability to inhibit mycelium growth in liquid culture assay. The compounds were added in the desired concentrations to culture medium containing the mycelial suspension. After 4 days of incubation, the fungicidal efficacy of compounds was determined by spectrometric measurement of mycelium growth. Inhibition of fungal growth was determined by comparing the absorbance values in wells containing the fungicides with the absorbance in control wells without fungicides.
# [3] = pH 2.7
# [4] = Phytophthora infestans, 192 h, read-out: Eff. % (inhibition of fungal growth)
# [5] = 0.25 μg/mL of active ingredient
SMILES,chromatographic logP (physchem),Eff. % (inhibition of fungal growth) (Phytophthora infestans [1]; 20 μg/mL of active ingredient) [%],Log P [3],Eff. % (inhibition of fungal growth) (Pythium ultimum; 20 μg/mL of active ingredient) [%],Eff. % (preventive efficacy) (Phytophthora infestans [2]; 100 ppm of active ingredient) [%],further results
"C#CCOc1ccccc1C1CC(c2csc(C3CCN(C(=O)CC(=O)OCC)CC3)n2)=NO1 (stereo not shown) [Example I-41, ethyl 3-oxo-3-[4-(4-{5-[2-(prop-2-yn-1-yloxy)phenyl]-4,5-dihydro-1,2-oxazol-3-yl}-1,3-thiazol-2-yl)piperidin-1-yl]propanoate]",2.7,–,–,–,–,"inhibition at 20 µg/mL (Phytophthora infestans [1]; [4]): 100%; Eff. % (preventive efficacy) (Plasmopara viticola; 1 ppm of active ingredient): 91%; Eff. % (preventive efficacy) (Phytophthora infestans [2]; 1 ppm of active ingredient): 94%; inhibition at 20 µg/mL (Pythium ultimum; Globisporangium ultimum, 96 h, 20 μg/mL of active ingredient, read-out: Eff. % (inhibition of fungal growth)): 99%"
C#CCOc1cccc(F)c1C1CC(c2csc(C3CCN(C(=O)CC(=O)OC(C)C)CC3)n2)=NO1 (stereo not shown) [Example I-44],–,100,2.85^[a],99,–,Eff. % (preventive efficacy) (Plasmopara viticola; 1 ppm of active ingredient): 82%
C#CCOc1cccc(F)c1C1CC(c2csc(C3CCN(C(=O)C(C(=O)OCCOC)n4nc(C(F)F)cc4C(F)F)CC3)n2)=NO1 (stereo not shown) [Example I-02],–,–,3.37^[a],–,96,Eff. % (inhibition of fungal growth) (Phytophthora infestans [1]; [5]): 100%; Eff. % (preventive efficacy) (Plasmopara viticola; 100 ppm of active ingredient): 100%; Eff. % (inhibition of fungal growth) (Pythium ultimum; of active ingredient): 96%
CCOC(=O)C(C(=O)N1CCC(c2nc(C3=NOC(c4c(Cl)cccc4OS(C)(=O)=O)C3)cs2)CC1)n1nc(C(F)F)cc1C(F)F (stereo not shown) [Example I-08],–,99,3.50^[a],87,95,Eff. % (preventive efficacy) (Plasmopara viticola; 100 ppm of active ingredient): 98%
CC(C)OC(=O)C(C(=O)N1CCC(c2nc(C3=NOC(c4ccccc4OS(C)(=O)=O)C3)cs2)CC1)n1nc(C(F)F)cc1C(F)F (stereo not shown) [Example I-01],–,100,3.53^[a],95,70,–
"CS(=O)(=O)Oc1ccccc1C1CC(c2csc(C3CCN(C(=O)C(C(=O)OCc4ccccc4)n4nc(C(F)F)cc4C(F)F)CC3)n2)=NO1 (stereo not shown) [Example I-60, benzyl 2-[3,5-bis(difluoromethyl)-1H-pyrazol-1-yl]-3-{4-[4-(5-{2-[(methylsulfonyl)oxy]phenyl}-4,5-dihydro-1,2-oxazol-3-yl)-1,3-thiazol-2-yl]piperidin-1-yl}-3-oxopropanoate]",3.77,–,–,–,–,inhibition at 0.25 µg/mL (Phytophthora infestans [1]; [4]): 100%
C#CCOc1cccc(Cl)c1C1CC(c2csc(C3CCN(C(=O)C(C(=O)OCC)n4nc(C(F)F)cc4C(F)F)CC3)n2)=NO1 (stereo not shown) [Example I-16],–,100,3.82^[a],94,98,Eff. % (preventive efficacy) (Plasmopara viticola; 100 ppm of active ingredient): 95%
C#CCOc1cccc(Cl)c1C1CC(c2csc(C3CCN(C(=O)CC(=O)OCC)CC3)n2)=NO1 (stereo not shown) [Example I-51],–,100,2.81^[a],95,–,Eff. % (preventive efficacy) (Plasmopara viticola; 1 ppm of active ingredient): 94%
"CS(=O)(=O)Oc1ccccc1C1CC(C(=O)CCl)=NO1 (stereo not shown) [2-[3-(chloroacetyl)-4,5-dihydro-1,2-oxazol-5-yl]phenyl methanesulfonate]",2.37,–,–,–,–,–
"NC(=S)C1CCN(C(=O)C(C(=O)OCc2ccccc2)n2nc(C(F)F)cc2C(F)F)CC1 (stereo not shown) [II-01, benzyl 2-[3,5-bis(difluoromethyl)-1H-pyrazol-1-yl]-3-(4-carbamothioyl-piperidin-1-yl)-3-oxopropanoate]",2.65,–,–,–,–,–
"N#CC1CCN(C(=O)CC(=O)OCc2ccccc2)CC1 [IV-02, benzyl 3-(4-cyanopiperidin-1-yl)-3-oxopropanoate]",1.85,–,–,–,–,–
"N#CC1CCN(C(=O)C(C(=O)OCc2ccccc2)n2nc(C(F)F)cc2C(F)F)CC1 (stereo not shown) [IV-04, benzyl 2-[3,5-bis(difluoromethyl)-1H-pyrazol-1-yl]-3-(4-cyanopiperidin-1-yl)-3-oxopropanoate]",2.94,–,–,–,–,–
C#CCOc1cccc(F)c1C1CC(c2csc(C3CCN(C(=O)CC(=O)OCC)CC3)n2)=NO1 (stereo not shown) [Example I-42],–,100,2.58^[a],100,–,Eff. % (preventive efficacy) (Plasmopara viticola; 1 ppm of active ingredient): 99%; Eff. % (preventive efficacy) (Phytophthora infestans [2]; 1 ppm of active ingredient): 94%
"C#CCOc1ccccc1C1CC(c2csc(C3CCNCC3)n2)=NO1 (stereo not shown) [4-(4-{5-[2-(prop-2-yn-1-yloxy)phenyl]-4,5-dihydro-1,2-oxazol-3-yl}-1,3-thiazol-2-yl)piperidinium chloride]",1.26,–,–,–,–,–
CCOC(=O)C(C(=O)N1CCC(c2nc(C3=NOC(c4c(F)cccc4OS(C)(=O)=O)C3)cs2)CC1)n1nc(C(F)F)cc1C(F)F (stereo not shown) [Example I-03],–,99,3.29^[a],96,95,Eff. % (preventive efficacy) (Plasmopara viticola; 100 ppm of active ingredient): 98%
C#CCOc1cccc(F)c1C1CC(c2csc(C3CCN(C(=O)C(Br)C(=O)OC(C)C)CC3)n2)=NO1 (stereo not shown) [Example I-38],–,–,3.30^[a],–,–,Eff. % (inhibition of fungal growth) (Phytophthora infestans [1]; [5]): 100%; Eff. % (preventive efficacy) (Plasmopara viticola; 1 ppm of active ingredient): 93%; Eff. % (inhibition of fungal growth) (Pythium ultimum; of active ingredient): 99%
COCCOC(=O)C(C(=O)N1CCC(c2nc(C3=NOC(c4ccccc4OS(C)(=O)=O)C3)cs2)CC1)n1nc(C(F)F)cc1C(F)F (stereo not shown) [Example I-05],–,–,3.14^[a],87,96,Eff. % (inhibition of fungal growth) (Phytophthora infestans [1]; [5]): 100%; Eff. % (preventive efficacy) (Plasmopara viticola; 100 ppm of active ingredient): 95%
